According to ChEMBL document CHEMBL1201862, “PubChem BioAssay data set” (2004):
Activity calls are given as the source filed them.

Key:
[1] = biological target: T1, Low molecular weight phosphotyrosine protein phosphatase (Homo sapiens, UniProt P24666); assay type: functional; settings: read-out: IC50_Mean
T1 sequence (P24666 whole entry): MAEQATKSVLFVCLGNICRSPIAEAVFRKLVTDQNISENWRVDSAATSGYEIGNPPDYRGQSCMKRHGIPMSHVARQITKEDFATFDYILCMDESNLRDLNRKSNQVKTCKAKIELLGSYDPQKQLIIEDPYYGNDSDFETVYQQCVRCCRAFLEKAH

[2] = biological target: T1, Low molecular weight phosphotyrosine protein phosphatase; assay type: functional; settings: read-out: IC50_Mean; remark: listed apart in the source
Albumin = Albumin (Bos taurus, UniProt P02769); test: Counterscreen for inhibitors of T-cell receptor (TCR)-CD3 interaction: Fluorescence-based biochemical high throughput dose response assay to identify inhibitors of T-cell receptor (TCR)-CD3 interaction using a TAMRA-labeled BSA probe.; assay type: functional
Albumin, sequence (P02769 whole entry, the tested form may be a part): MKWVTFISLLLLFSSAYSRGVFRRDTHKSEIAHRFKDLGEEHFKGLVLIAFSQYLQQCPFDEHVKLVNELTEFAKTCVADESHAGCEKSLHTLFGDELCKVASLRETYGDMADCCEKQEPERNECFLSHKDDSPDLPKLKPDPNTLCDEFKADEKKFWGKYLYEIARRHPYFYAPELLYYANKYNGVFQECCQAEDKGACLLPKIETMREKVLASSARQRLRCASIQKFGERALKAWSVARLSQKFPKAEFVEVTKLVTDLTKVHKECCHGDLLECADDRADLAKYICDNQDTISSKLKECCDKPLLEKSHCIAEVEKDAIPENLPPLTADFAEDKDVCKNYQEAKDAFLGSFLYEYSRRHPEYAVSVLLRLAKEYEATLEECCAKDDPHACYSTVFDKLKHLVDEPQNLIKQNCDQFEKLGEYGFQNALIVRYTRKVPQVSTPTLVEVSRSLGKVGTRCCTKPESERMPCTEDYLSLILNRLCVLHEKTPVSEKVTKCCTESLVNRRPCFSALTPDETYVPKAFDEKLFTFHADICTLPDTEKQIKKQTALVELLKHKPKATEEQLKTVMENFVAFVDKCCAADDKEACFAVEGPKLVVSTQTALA

[3] = biological target: T2, Tyrosine-protein phosphatase non-receptor type 22 (Homo sapiens, UniProt Q9Y2R2); test: LYP phosphatase inhibition for selectivity, dose response, selectivity assay for LMPTP inhibitor project, biochemical, fluorescence, LYP catalytic domain (AID 652006); assay type: functional; settings: read-out: IC50_Mean
T2 sequence (Q9Y2R2 whole entry): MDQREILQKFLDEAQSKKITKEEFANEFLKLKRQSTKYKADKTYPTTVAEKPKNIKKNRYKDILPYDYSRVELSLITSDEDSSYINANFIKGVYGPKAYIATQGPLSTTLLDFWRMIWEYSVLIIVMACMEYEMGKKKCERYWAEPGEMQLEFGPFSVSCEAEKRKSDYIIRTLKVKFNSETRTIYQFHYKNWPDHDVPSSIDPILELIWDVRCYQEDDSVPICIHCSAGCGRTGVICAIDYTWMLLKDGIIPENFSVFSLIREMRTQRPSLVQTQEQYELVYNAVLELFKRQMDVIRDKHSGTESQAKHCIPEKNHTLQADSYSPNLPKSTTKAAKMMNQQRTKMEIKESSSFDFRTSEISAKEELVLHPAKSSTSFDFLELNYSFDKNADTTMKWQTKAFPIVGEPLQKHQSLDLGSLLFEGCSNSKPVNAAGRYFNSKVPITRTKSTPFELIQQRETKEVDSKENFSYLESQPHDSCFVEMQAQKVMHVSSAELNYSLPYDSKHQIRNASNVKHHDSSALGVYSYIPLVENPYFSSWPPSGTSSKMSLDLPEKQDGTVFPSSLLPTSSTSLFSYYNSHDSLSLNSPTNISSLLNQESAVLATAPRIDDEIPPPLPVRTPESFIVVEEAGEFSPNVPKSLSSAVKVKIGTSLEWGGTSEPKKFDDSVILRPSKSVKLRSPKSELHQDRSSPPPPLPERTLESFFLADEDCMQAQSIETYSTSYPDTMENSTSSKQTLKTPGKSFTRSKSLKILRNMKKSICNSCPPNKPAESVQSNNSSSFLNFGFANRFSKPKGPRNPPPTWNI

[4] = CAL PDZ domain peptide-binding inhibitors, dose response, biochemical, fluorescence polarization, untagged CAL PDZ, cherry-pick, set 2 (AID 602254); assay type: functional
[5] = biological target: Protein disulfide-isomerase (Homo sapiens, UniProt P07237); test: PDI inhibitors, insulin aggregation turbidity, dose response, biochemical, absorbance, cherry-picked samples (AID 602350); assay type: functional
Protein disulfide-isomerase, sequence (P07237 whole entry): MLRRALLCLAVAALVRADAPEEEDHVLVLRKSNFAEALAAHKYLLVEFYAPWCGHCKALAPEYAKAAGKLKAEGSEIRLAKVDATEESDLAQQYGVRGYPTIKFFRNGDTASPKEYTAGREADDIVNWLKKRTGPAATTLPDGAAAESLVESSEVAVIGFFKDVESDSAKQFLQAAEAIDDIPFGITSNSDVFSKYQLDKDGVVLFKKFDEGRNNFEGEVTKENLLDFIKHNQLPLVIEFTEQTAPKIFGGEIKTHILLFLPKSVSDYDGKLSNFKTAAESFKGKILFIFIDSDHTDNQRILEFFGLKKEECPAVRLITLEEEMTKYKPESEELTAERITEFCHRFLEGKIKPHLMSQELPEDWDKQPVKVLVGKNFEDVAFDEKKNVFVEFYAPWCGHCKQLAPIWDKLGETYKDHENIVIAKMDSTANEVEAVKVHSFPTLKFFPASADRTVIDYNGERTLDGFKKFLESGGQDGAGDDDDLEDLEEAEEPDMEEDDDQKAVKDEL

[6] = THP-1 cell cytotoxicity, dose response, cytotoxicity control for non-replicating M. tuberculosis project (AID 489025); assay type: functional
cells = assay type: functional
[7] = microbe, parasite or virus in culture; assay type: functional; settings: Mycobacterium tuberculosis
[8] = biological target: T3, Neuropeptides B/W receptor type 1 (Homo sapiens, UniProt P48145); test: GPR7 antagonist potency, late-stage follow-up, cell-based, fluorescence, dose response, set 5 (AID 588566); assay type: functional
T3 sequence (P48145 whole entry): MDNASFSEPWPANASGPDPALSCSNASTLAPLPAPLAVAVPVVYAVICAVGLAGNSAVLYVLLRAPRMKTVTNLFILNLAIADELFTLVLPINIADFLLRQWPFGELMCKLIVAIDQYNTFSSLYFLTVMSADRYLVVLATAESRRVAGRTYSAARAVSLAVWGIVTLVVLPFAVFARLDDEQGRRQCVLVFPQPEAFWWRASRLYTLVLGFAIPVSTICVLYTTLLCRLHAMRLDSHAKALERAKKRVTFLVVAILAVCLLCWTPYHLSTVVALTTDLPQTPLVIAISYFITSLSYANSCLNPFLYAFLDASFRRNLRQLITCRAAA

[9] = biological target: Melanin-concentrating hormone receptor 1 (Homo sapiens, UniProt Q99705); test: Late-stage fluorescence-based counterscreen for antagonists of the G-protein coupled receptor 7 (GPR7): cell-based dose response assay to identify antagonists of the melanin-concentrating hormone receptor 1 (MCHR1) Set 5.; assay type: functional
Melanin-concentrating hormone receptor 1, sequence (Q99705 whole entry): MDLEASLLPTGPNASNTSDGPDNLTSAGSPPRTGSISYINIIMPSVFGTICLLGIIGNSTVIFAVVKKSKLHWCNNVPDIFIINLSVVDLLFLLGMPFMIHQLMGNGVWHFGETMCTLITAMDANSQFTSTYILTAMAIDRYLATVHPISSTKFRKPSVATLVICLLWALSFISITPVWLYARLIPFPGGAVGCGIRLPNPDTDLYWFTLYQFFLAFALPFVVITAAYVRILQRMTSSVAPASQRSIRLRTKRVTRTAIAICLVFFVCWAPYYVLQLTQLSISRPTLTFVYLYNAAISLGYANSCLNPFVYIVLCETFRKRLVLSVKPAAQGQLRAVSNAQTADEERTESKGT

[10] = biological target: ADP-ribosylation factor GTPase-activating protein 1 (Rattus norvegicus, UniProt Q62848); test: Fluorescence polarization-based biochemical high throughput dose response screening assay to identify inhibitors of ADP-ribosylation factor GTPase activating protein 1 (ARFGAP1).; assay type: functional
ADP-ribosylation factor GTPase-activating protein 1, sequence (Q62848 whole entry, the tested form may be a part): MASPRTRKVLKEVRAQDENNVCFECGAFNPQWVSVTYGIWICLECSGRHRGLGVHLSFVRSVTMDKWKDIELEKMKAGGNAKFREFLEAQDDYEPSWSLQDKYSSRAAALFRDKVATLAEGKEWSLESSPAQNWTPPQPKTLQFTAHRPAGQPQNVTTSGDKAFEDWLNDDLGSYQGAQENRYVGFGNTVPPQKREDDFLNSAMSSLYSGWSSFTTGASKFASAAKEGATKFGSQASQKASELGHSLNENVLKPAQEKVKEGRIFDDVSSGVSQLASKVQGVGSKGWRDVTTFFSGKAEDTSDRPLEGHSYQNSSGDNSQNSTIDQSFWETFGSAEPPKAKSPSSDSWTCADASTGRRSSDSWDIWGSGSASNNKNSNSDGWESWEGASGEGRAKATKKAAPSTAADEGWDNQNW

[11] = biological target: T4, Sentrin-specific protease 1 (Homo sapiens, UniProt Q9P0U3); test: Dose response confirmation of small molecule inhibitors of the catalytic domain of the SUMO protease, SENP1 in a FRET assay.; assay type: functional; settings: read-out: IC50_Mean
T4 sequence (Q9P0U3 whole entry, the tested form may be a part): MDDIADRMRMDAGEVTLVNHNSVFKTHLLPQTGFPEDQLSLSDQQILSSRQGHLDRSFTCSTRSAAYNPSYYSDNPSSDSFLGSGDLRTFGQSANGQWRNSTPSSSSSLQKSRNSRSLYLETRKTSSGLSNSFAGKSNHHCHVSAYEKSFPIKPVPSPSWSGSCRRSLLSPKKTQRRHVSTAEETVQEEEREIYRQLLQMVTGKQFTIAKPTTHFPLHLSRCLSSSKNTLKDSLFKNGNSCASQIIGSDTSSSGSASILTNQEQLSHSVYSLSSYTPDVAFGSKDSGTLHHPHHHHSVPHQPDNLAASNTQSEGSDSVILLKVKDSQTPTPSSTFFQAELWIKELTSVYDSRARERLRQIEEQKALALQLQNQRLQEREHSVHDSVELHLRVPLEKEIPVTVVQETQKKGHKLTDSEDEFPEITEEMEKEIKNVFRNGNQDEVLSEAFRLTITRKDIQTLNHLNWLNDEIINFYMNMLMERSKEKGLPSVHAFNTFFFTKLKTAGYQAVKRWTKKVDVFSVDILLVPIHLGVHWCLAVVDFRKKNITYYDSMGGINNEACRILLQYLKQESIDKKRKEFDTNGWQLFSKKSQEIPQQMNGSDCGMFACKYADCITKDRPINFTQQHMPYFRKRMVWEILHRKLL

[12] = biological target: T4, Sentrin-specific protease 1; test: potency of human SENP1 inhibitors, dose response, biochemical, kinetic FRET (AID 651697); assay type: functional; settings: read-out: IC50_Mean
Melanocortin receptor 4 = Melanocortin receptor 4 (Homo sapiens, UniProt P32245); test: MC4R antagonist potency on cAMP, dose response, cell-based, TR-FRET, biased antagonists (AID 602298); assay type: functional;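 note: antagonist potency against agonist-stimulated cAMP production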
Melanocortin receptor 4, sequence (P32245 whole entry): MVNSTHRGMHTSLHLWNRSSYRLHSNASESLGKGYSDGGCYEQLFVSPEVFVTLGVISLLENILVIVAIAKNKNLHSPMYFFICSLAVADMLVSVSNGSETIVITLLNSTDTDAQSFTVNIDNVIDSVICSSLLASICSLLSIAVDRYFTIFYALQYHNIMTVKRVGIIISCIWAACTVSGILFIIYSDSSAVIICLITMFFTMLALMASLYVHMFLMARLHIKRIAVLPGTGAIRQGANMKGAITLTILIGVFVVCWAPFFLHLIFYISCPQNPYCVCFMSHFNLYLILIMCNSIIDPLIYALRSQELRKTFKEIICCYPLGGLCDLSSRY

[13] = MC4R antagonists, dose response, counter-screen for LGR2 antagonist project, cell-based, plate reader, cherry pick (AID 743444); assay type: functional;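 note: transfected HEK 293 cells stimulated with alpha-MSH peptide; potency of inhibitors of the alpha-MSH evoked signal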
[14] = HEK293 cell cytotoxicity, dose response, cytotoxicity control, plate reader, cherry-picked samples (AID 743446); assay type: functional, cell-based
[15] = nonselective inhibitors of cellular cAMP signaling, dose response, counter-screen for MC4R biased antagonist project, cell-based, TR-FRET cAMP detection (AID 602305); assay type: functional;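 note: U2OS cells stimulated with forskolin near its EC80 as the cAMP inducer; potency is for inhibition of forskolin-stimulated cAMP signaling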
[16] = LGR2 antagonists, dose response, cell-based, HEK293, CRE-luciferase reporter, cherry pick, set 2 (AID 743343); assay type: functional;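 note: transfected cells were stimulated with diluted bursicon conditioned medium after compound addition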
[17] = biological target: T5, Apoptotic protease-activating factor 1 (Homo sapiens, UniProt O14727); test: SAR analysis of small molecule Activators of Apaf-1 in a Fluorescent assay.; assay type: functional; settings: read-out: EC50_Mean;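 note: caspase-3 cleavage of fluorogenic Rh110 DEVD substrate downstream of apoptosome activation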
T5 sequence (O14727 whole entry): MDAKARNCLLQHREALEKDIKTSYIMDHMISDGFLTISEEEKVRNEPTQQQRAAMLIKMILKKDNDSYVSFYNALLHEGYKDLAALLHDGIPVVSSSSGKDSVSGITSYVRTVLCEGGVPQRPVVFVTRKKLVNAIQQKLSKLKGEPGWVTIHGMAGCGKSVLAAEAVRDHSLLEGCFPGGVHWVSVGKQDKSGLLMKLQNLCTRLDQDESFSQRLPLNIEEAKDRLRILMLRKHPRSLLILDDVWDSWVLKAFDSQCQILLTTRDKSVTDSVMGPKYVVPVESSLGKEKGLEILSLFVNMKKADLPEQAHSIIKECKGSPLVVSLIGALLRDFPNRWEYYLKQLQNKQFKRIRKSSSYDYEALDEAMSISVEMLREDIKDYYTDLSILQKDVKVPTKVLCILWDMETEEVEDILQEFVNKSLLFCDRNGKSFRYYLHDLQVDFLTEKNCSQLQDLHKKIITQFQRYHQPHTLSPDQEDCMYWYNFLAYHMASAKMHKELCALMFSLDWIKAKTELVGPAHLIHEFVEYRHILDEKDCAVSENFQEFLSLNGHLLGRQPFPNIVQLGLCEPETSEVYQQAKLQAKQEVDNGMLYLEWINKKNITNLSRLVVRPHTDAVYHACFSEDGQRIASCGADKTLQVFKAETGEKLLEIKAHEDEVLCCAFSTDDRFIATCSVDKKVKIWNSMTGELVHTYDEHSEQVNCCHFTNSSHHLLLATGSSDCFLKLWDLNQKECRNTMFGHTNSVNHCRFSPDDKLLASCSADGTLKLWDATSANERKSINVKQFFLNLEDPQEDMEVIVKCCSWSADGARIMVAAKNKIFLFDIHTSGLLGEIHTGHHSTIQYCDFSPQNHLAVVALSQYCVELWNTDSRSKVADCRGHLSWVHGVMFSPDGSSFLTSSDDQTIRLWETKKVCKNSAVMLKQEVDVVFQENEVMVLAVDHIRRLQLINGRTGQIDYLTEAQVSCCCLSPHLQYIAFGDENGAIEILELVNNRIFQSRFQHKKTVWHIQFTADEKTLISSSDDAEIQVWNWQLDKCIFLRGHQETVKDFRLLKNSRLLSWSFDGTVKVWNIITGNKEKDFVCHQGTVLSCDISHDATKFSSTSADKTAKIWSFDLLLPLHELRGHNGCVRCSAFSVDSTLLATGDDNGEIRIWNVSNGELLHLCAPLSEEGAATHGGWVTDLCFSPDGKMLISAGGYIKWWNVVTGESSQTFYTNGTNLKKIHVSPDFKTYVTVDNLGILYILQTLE

Estrogen receptor = biological target: T6, Estrogen receptor (Homo sapiens, UniProt P03372);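 note: potency for inhibiting coactivator peptide recruitment to the receptor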
T6 sequence (P03372 whole entry): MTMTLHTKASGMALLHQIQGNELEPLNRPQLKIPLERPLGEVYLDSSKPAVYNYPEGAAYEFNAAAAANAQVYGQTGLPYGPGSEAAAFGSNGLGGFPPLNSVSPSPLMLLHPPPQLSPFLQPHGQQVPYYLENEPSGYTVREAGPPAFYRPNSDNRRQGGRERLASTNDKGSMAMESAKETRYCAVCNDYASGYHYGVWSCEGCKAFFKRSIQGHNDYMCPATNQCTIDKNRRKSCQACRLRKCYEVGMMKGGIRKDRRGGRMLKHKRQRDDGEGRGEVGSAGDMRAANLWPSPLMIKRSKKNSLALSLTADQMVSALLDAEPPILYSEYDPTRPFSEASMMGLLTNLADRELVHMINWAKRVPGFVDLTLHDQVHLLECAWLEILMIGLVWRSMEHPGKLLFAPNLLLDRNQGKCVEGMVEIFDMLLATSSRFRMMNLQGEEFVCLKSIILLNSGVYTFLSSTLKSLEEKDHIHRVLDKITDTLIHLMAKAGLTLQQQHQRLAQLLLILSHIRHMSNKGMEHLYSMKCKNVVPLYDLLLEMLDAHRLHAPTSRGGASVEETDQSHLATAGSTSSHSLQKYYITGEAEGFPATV

[18] = biological target: T7, Carboxy-terminal domain RNA polymerase II polypeptide A small phosphatase 1 (Homo sapiens, UniProt Q9GZU7); test: inhibitors of CTDSP1, concentration-response testing, biochemical assay, absorbance-based, actives from ultra-high-throughput screening (AID 540297); assay type: functional
T7 sequence (Q9GZU7 whole entry): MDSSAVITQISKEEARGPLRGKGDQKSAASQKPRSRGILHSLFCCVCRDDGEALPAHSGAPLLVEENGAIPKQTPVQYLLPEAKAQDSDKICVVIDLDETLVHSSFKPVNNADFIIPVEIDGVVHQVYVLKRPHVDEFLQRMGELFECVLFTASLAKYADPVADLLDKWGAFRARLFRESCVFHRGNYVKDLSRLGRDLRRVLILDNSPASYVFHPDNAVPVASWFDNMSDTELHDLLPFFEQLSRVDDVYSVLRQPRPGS

Estrogen receptor beta [19] = biological target: T8, Estrogen receptor beta (Homo sapiens, UniProt Q92731); test: ERβ–SRC-3 coactivator interaction inhibitors, confirmation, orthogonal assay, biochemical, ELISA, streptavidin-HRP readout (AID 1060)
T8 sequence (Q92731 whole entry): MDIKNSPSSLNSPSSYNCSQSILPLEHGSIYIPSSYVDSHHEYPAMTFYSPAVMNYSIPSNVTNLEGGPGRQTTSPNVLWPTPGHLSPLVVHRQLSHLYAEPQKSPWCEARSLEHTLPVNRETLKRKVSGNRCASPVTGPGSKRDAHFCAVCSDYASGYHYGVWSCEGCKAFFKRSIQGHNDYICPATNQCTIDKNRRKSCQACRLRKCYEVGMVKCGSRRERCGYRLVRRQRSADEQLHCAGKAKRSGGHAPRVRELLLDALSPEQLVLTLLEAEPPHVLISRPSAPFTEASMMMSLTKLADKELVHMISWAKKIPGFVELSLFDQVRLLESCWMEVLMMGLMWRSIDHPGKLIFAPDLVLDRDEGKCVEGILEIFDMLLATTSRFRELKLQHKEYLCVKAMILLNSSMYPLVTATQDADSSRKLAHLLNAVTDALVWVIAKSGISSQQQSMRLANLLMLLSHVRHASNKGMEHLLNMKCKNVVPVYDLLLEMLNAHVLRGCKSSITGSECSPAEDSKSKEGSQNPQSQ

[20] = biological target: DNA (cytosine-5)-methyltransferase 1 (Homo sapiens, UniProt P26358); test: DNMT1 methyltransferase inhibitors, confirmation, biochemical, fluorescent molecular beacon (AID 602386); assay type: functional
DNA (cytosine-5)-methyltransferase 1, sequence (P26358 whole entry): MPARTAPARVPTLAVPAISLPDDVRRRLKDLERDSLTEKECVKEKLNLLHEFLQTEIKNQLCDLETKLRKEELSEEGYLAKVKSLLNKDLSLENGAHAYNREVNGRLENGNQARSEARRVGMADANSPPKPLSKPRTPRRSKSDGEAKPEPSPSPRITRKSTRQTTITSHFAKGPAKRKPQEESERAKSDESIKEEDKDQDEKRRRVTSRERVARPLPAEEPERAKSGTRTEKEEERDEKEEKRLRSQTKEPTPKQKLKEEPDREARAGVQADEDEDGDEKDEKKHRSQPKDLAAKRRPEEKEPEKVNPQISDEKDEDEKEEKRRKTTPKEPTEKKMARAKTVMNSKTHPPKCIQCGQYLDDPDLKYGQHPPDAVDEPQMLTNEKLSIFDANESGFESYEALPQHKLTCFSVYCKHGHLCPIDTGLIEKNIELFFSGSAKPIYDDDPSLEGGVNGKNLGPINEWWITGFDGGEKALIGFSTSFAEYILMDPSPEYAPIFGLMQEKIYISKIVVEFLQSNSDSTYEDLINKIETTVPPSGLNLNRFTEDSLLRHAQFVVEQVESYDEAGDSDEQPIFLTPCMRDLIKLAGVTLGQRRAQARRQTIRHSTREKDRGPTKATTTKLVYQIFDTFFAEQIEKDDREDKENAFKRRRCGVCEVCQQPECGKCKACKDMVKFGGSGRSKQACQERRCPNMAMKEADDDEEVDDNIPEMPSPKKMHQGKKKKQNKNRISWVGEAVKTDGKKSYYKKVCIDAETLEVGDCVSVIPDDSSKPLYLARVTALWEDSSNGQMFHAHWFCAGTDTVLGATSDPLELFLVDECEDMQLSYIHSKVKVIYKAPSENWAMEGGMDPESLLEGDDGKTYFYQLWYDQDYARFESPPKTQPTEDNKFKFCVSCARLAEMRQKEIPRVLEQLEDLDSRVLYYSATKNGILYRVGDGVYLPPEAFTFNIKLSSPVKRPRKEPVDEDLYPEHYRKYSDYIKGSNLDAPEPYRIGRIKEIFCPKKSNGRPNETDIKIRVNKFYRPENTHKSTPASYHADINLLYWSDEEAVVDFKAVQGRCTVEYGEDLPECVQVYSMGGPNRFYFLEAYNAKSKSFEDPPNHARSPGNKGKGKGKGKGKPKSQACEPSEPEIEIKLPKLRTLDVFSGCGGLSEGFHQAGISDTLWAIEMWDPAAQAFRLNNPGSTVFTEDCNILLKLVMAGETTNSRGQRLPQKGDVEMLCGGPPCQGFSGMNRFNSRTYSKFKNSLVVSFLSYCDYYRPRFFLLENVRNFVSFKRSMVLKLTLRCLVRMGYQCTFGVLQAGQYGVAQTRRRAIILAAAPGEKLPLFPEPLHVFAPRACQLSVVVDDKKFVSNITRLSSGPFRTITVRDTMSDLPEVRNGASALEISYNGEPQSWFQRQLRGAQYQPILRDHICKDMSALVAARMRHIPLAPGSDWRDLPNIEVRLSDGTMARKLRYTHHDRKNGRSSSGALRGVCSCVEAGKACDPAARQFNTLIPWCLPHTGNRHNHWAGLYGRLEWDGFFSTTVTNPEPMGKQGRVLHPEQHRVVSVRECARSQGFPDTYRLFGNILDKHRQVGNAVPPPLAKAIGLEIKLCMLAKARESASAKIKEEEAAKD

Estrogen receptor beta [21] = biological target: T8, Estrogen receptor beta

Compound: O=C1C(=Cc2cn(-c3ccccc3)nc2-c2ccc(OCc3ccccc3)cc2)SC(=S)N1CCS(=O)(=O)O
- IC50 [1]: 7.75 µM (active)
- IC50 [2]: 7.03 µM (active)
- IC50 (Albumin): > 94.2 µM (inactive)
- IC50 [3]: 16.1 µM (active)

Compound: N#Cc1ccc(NC(=S)NCCN2CCOCC2)cc1
- AC50 [4]: 107 µM (active)

Compound: CCc1cc(OCCCCNCc2ccccc2)ccc1Cl
- AC50 [5]: 10.6 µM (active)
- CC50 [6]: > 40 µM (active)
- IC50 (cells): 20.1 µM (active)
- CC50 [7]: > 40 µM (active)

Compound: N#CC(c1ccccc1)c1c(Cl)cnn(Cc2cccc3ccccc23)c1=O (stereo not given)
- IC50 [8]: 0.13 µM (active)
- IC50 [9]: 7.61 µM (active)

Compound: Cc1ccc2nc3c(O)n(CC(=O)Nc4ccccc4N4CCN(C)CC4)ncc-3c2c1
- IC50 [10]: 74 µM (inactive)

Compound: COc1ccc(Oc2c(Cl)cnn(CC(=O)O)c2=O)cc1
- IC50 [8]: > 20 µM (inactive)
- IC50 [9]: > 20 µM (inactive)

Compound: Cc1ccc(-n2cc(-c3ccc([N+](=O)[O-])cc3)[nH]c2=S)c(C)c1
- IC50 [11]: 17.2 µM (active)
- IC50 [12]: 54.1 µM (inactive)

Compound: Cc1ccc2nc(-c3ccc(NC(=O)C(C)Sc4nncs4)cc3)sc2c1 (stereo not given)
- IC50 (Melanocortin receptor 4): > 64.6 µM (inactive)
- AC50 [13]: 5.51 µM (active)
- AC50 [14]: > 52 µM (inactive)
- IC50 [15]: > 64.6 µM (inactive)
- AC50 [16]: 5.56 µM (active)

Compound: CCOc1ccccc1NC(=O)CCS(=O)(=O)c1cc2c(cc1Br)CCN2C(=O)CC
- EC50 [17]: > 100 µM (inactive)

Compound: Cc1ccnc(NS(=O)(=O)c2ccc(NC(=O)Cc3cccs3)cc2)n1
- IC50 (Estrogen receptor): 12.2 µM (active)
- IC50 [18]: 4.2 µM (active)
- IC50 (Estrogen receptor beta [19]): > 109 µM (not active)
- IC50 [20]: 9.16 µM (active)
- IC50 (Estrogen receptor beta [21]): 3.09 µM (active)

Compound: CC(C)(C)OC(=O)N[C@@H](Cc1c[nH]c2ccccc12)c1nnc(SCC(N)=O)o1
- AC50 [5]: 19.5 µM (active)

Compound: O=C(COC(=O)CNC(=O)c1ccc(Cl)cc1Cl)NCc1ccco1
- IC50 (Melanocortin receptor 4): > 64.6 µM (inactive)
- IC50 [15]: > 64.6 µM (inactive)
